From patent US12263248B2, “Compounds and compositions for intracellular delivery of therapeutic agents” (ModernaTX, Inc., priority 2018, dated 2025) come the findings set out here.

A short description of data set [1]: Particle size and polydispersity index of nanoparticle compositions (Zetasizer Nano ZS). It counts as physicochemical. Particulars: Table 1A; for Size (nm): lipid:DSPC:cholesterol:PEG-DMG 50:10:38.5:1.5 mol %. The essentials: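 Particle size and PDI were measured on a Zetasizer Nano ZS with the nanoparticle compositions dispersed in 1×PBS.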
The nature of data set [2]: Lipid clearance: lipid level in mouse liver tissue (LC-MS/MS). It counts as in vivo. Particulars: for % Dose Remaining in Liver 6 h: Table 3D, intravenous.
Description: Quantification of Lipid by LC-MS/MS: Liver samples were homogenized following addition of 19 eq. (w/v) of water (DF=20). Protein was precipitated and analyzed against calibration standards prepared in matching blank. Chromatographic separation and quantification was accomplished with a LC-MS/MS System. Samples were injected and separated via HPLC A triple-quadrupole MS/MS system operated in positive ion mode was used for signal detection.
The test system of data set [3] is luciferase (Luc) mRNA. The experiment in a line: Luc expression in liver, lung, spleen and femur 6 hours after intravenous administration. It counts as in vivo. Particulars: mice, 0.5 mpk; for Total Flux Liver / Total Flux Lung / Total Flux Spleen: intravenous. The essentials:
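LNP-formulated mRNA given IV to mice (n=3) at 0.5 mpk; at 6 h, bioluminescence imaged ex vivo 15 min after IP D-luciferin (15 mg/mL, 200 μL), organs imaged within 25 min. Values are total flux by region of interest.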

Data set [4] is described as follows: Apparent (surface) pKa of the LNP formulation (TNS assay). It counts as physicochemical. The note with it: for pKa: Table 1A. The essentials:
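LNP (0.04 mg/mL mRNA) mixed with TNS reagent in 21 buffers spanning about pH 3-12, in triplicate; fluorescence plotted against pH as sigmoidal curve. Apparent pKa taken as […] curve inflection point; validated in 1× PBS and 20 mM Tris w/8% sucrose.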

Data set [5] deals with luciferase (Luc) mRNA. The experiment in a line: Luc expression, whole body bioluminescence after intravenous administration to mice. It counts as in vivo. The note with it: for Lipid/MC3 AUC / AUC (p/s * h): Table 3D; for AUC (p/s * h): Luc; for Total Flux 3 hours / Total Flux 6 hours / Total Flux 24 hours: mice, i.v., 0.5 mg/kg, Luc mRNA. The essentials:
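Luc mRNA nanoparticle formulations given intravenously to mice (n=6) at 0.5 mg/kg; whole-body bioluminescence imaged at 3, 6 and 24 h. CD-1 mice received IP D-luciferin (200 μL of 15 mg/mL) 15 min before imaging; total flux quantified by region of interest.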

A short description of data set [6]: Encapsulation efficiency of RNA (QUANT-IT RIBOGREEN RNA assay). It counts as physicochemical. Particulars: Table 1A. The essentials:
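RiboGreen fluorescence (ex ~480, em ~520 nm) compared between intact samples and Triton X-100-lysed samples after 15 min at 37 °C in TE buffer, pH 7.5. Percent free RNA is the blank-corrected intact/disrupted ratio.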

Data set [7] has as its system luciferase (Luc) mRNA. Description: Luc expression (total flux) after intramuscular administration. It counts as in vivo, mice. Particulars: Table 3H; intramuscular, Luc. The essentials:
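Mice given a single intramuscular dose of lipid nanoparticle formulations carrying modified Luc mRNA, alone or with H10 mRNA, at 0.001 or 0.01 mpk total. Luciferase expression recorded as total flux.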

The mark [8] stands for this setting: second column (head also says 6 h).

The pKa is the pH at which an ionisable group is half protonated. Consider `CCCCCCCCC(CCCCCCCC)OC(=O)CCCCCCCN(CCO)CCCCCCCC(=O)OCC(CCCCCCC)OC` (centres unmarked) [Compound 148, Heptadecan-9-yl 8-((2-hydroxyethyl)(8-((2-methoxynonyl)oxy)-8-oxooctyl)amino)octanoate], for which, in data set [1], the PDI is 0.200 and the “Size (nm)” value is 192.7 nm. The “% Dose Remaining in Liver 6 h” value in data set [2] (setting [8]) is less than 1%. Further, the “% Dose Remaining in Liver 6 h” value in data set [2] is less than 1%. In the data set with luciferase (Luc) mRNA [3] (i.v., in words), the “Flux in the spleen” value is given as “highest”. In the data set with luciferase (Luc) mRNA [3], the “Total Flux Liver” value is 4.39E+09, the “Total Flux Lung” value was 3.27E+07 and the “Total Flux Spleen” value was found to be 2.71E+09. In data set [4], the pKa was found to be 6.646. In the data set with luciferase (Luc) mRNA [5] (intravenous), the “Lipid/MC3 AUC” value was found to be 2.6 and the “AUC (p/s * h)” value is 4.965E+011 p/s * h. Besides, in the data set with luciferase (Luc) mRNA [5], the “Total Flux 3 hours” value amounted to 6.28E+10, the “Total Flux 6 hours” value was found to be 3.71E+10 and the “Total Flux 24 hours” value turned out to be 1.43E+09. Moreover, the “EE (%)” value in data set [6] is 25.49%.
For the compound `CCCCCCCCC(CCCCCCCC)OC(=O)CCCCCCCN(C)CCCCCCCCCCCC(=O)OCCCCC` [Compound 150, Pentyl 12-((8-(heptadecan-9-yloxy)-8-oxooctyl)(methyl)amino)dodecanoate], in data set [1], the PDI amounted to 0.082 and the “Size (nm)” value stood at 63.1 nm. In data set [2] (setting [8]), the “% Dose Remaining in Liver 6 h” value was less than 1%. In data set [2], the “% Dose Remaining in Liver 6 h” value is listed as less than 1%. In the data set with luciferase (Luc) mRNA [3], the “Total Flux Liver” value was 1.54E+09, the “Total Flux Lung” value was 2.20E+06 and the “Total Flux Spleen” value was 3.43E+07. Further, the pKa in data set [4] was 6.101. Further, in the data set on luciferase (Luc) mRNA [5] (intravenous), the “Lipid/MC3 AUC” value stood at 1.4 and the “AUC (p/s * h)” value turned out to be 2.704E+011 p/s * h. Besides, in the data set with luciferase (Luc) mRNA [5], the “Total Flux 3 hours” value is reported as 1.66E+10, the “Total Flux 6 hours” value came to 2.31E+10 and the “Total Flux 24 hours” value turned out to be 3.86E+08. Further, the “EE (%)” value in data set [6] is on record as 96.72%.
Regarding `CCCCCCCCCOC(=O)CCCCCCCN(CCO)CCCCCCCCCC(CCCCCCCC)CCCCCCCC` [Compound 153, Nonyl 8-((2-hydroxyethyl)(10-octyloctadecyl)amino)octanoate], in data set [1], the PDI was 0.150 and the “Size (nm)” value came to 83.7 nm. Besides, the “% Dose Remaining in Liver 6 h” value in data set [2] (setting [8]) is less than 1%. The “% Dose Remaining in Liver 6 h” value in data set [2] is less than 1%. In the data set on luciferase (Luc) mRNA [3], the “Total Flux Liver” value was 1.18E+09, the “Total Flux Lung” value was found to be 6.42E+06 and the “Total Flux Spleen” value came to 1.42E+08. In addition, in data set [4], the pKa was found to be 6.580. Besides, in the data set with luciferase (Luc) mRNA [5] (intravenous), the “Lipid/MC3 AUC” value is 1.4 and the “AUC (p/s * h)” value worked out at 2.697E+011 p/s * h. For the same compound, in the data set on luciferase (Luc) mRNA [5], the “Total Flux 3 hours” value is recorded as 1.69E+10, the “Total Flux 6 hours” value amounted to 2.28E+10 and the “Total Flux 24 hours” value came to 5.10E+08. Besides, the “EE (%)” value in data set [6] is reported as 98.39%.
Turning to `CCCCCCCCCOC(=O)CCCCCCCN(CCCCCCCC(=O)OC(CCCCCCCC)CCCCCCCC)C(C)CO` (centres unmarked) [Compound 157, Heptadecan-9-yl 8-((1-hydroxypropan-2-yl)(8-(nonyloxy)-8-oxooctyl)amino)octanoate], in data set [1], the PDI was 0.093 and the “Size (nm)” value is 61 nm. For the same compound, the “% Dose Remaining in Liver 6 h” value in data set [2] (setting [8]) is given as less than 1%. In addition, the “% Dose Remaining in Liver 6 h” value in data set [2] is less than 1%. Also, in the data set on luciferase (Luc) mRNA [3], the “Total Flux Liver” value is recorded as 2.27E+09, the “Total Flux Lung” value worked out at 6.70E+06 and the “Total Flux Spleen” value came out at 5.15E+07. In data set [4], the pKa was 6.275. Also, in data set [4] (Table 3F), the “App. pKa” value was found to be 6.27. For the same compound, in the data set on luciferase (Luc) mRNA [7], the “AUC (p/s * h)” value came out at 4.68E+08 p/s * h and the “Lipid/MC3 AUC” value is given as 0.80. In the data set on luciferase (Luc) mRNA [5] (intravenous), the “Lipid/MC3 AUC” value turned out to be 1.3 and the “AUC (p/s * h)” value is reported as 2.481E+011 p/s * h. For the same compound, in the data set with luciferase (Luc) mRNA [5] (luciferase, intravenous, relative to MC3 formulation), the “Novel lipid/MC3 expression ratio, 6 hr. time point, i.v.” value came out at 1.29. For the same compound, in the data set with luciferase (Luc) mRNA [5], the “Total Flux 3 hours” value was determined as 8.54E+09, the “Total Flux 6 hours” value is 2.22E+10 and the “Total Flux 24 hours” value amounted to 1.90E+08. The “EE (%)” value in data set [6] is listed as 96.04%.
For the compound `CCCCCCCCC(CCCCCCCC)C(=O)OCCCCCCCN(CCO)C(C)CCCCCCCCOC(=O)CCCCCCC` (centres unmarked) [Compound 162, 7-((2-Hydroxyethyl)(10-(octanoyloxy)decan-2-yl)amino)heptyl 2-octyldecanoate], in data set [1], the PDI was 0.14 and the “Size (nm)” value was found to be 72.7 nm. Further, the “% Remaining dose at 6 h” value in data set [2] (Table 3E, mouse liver, 6 h) was 0.283%. The “% Remaining dose at 24 h” value in data set [2] (Table 3E, mouse liver, 24 h) came to 0%. In addition, in data set [4], the pKa was found to be 6.08. In addition, in the data set on luciferase (Luc) mRNA [5] (Table 3E, intravenous), the “6 h BLI Lipid/MC3” value is 0.28. Besides, the “EE (%)” value in data set [6] amounted to 94.1%.
